Holding throughout (type): in vitro ADME
The target in one data set is T1, recombinant human CYP1A2 (Homo sapiens, UniProt P05177).
T1 construct: purchased Promega (P450-Glo Screening system); host or cells: baculovirus expression system
T1 sequence (P05177 1-516): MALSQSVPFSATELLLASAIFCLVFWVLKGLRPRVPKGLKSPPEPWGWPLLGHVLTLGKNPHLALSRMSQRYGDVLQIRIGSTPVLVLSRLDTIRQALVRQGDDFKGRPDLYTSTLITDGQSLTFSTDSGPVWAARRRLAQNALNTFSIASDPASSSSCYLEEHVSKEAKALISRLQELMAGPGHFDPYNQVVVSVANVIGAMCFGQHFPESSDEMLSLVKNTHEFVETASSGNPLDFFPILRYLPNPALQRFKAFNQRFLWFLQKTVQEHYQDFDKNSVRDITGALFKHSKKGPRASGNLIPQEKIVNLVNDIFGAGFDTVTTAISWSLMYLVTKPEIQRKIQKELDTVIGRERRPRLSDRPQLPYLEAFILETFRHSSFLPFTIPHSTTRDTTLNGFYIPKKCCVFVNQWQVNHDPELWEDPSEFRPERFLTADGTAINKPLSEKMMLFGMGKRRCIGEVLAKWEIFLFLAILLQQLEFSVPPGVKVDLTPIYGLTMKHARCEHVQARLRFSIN
As to the kind of experiment: Luminogenic P450-Glo enzyme inhibition assay, CYP1A2. The protocol:
(§1) The assay was carried out using P450-Glo Screening system from Promega (Promega Inc., Madison Wis., USA). It contains recombinant human CYP1A2, CYP2C9, CYP2C19, CYP2D6, and CYP3A4 enzymes in the membranes produced by a baculovirus expression system, specific luminogenic cytochrome enzyme substrates (luciferin 6-methyl ether, luciferin 6-benzyl ether, 6-deoxyluciferin, ethylene glycol ester of 6-deoxyluciferin, and ethylene glycol ester of luciferin 6-methyl ether), negative control membranes, a nicotinamide adenine dinucleotide phosphate hydrogen (NADPH) regeneration system containing NADP+, glucose-6-phosphate, magnesium chloride (MgCl2) and glucose-6-phosphate dehydrogenase (functioning to initiate and sustain the CYP450 reaction by maintaining a non-limiting NADPH system), reaction buffer, luciferin detection reagent, and Luciferin-Free Water. The negative control membranes were devoid of CYP activity. The luminogenic inhibition assays were performed following the protocols from Promega Corp. (Technical Bulletin, P450-Glo Assays, Promega Corp., 2009) and previous studies. […] The 12.5 μL of the luciferin-free water was added individually in both the “untreated” wells representing the values of total CYP activity and the “minus-P450 control” wells representing the values of the CYP-independent background luminescence. Secondly, 12.5 μL of the 4× reaction mixture (containing human CYP membrane preparations, the appropriate luminogenic substrate, and potassium phosphate buffer) was added to the “treated” and the “untreated” wells. The 12.5 μL of the 4× control reaction mixture (containing membrane preparations devoid of CYP enzymes, the appropriate luminogenic substrate, and potassium phosphate buffer) was added to the “minus-P450 control” wells. The plate was preincubated at room temperature (25°C) for 10 min, and then 25 μL of the 2× NADPH regeneration system was added to initiate the reaction. […] The luminescence in all of the samples was measured using a microplate reader as relative light units (RLU) after 20 min incubation to stabilize the luminescent signal. The assay experiments were repeated three independent times. The amount of light produced is directly proportional to the CYP enzyme activity. The net signals from untreated CYP reactions represent total CYP activity (100%). The modulation of the CYP activity by the test compound was determined by comparing the changes from the average net signal of untreated CYP reactions with the changes observed from the test compound. […] USA).

The next data set deals with T2, recombinant human CYP2C9 (Homo sapiens, UniProt P11712).
T2 construct: purchased Promega (P450-Glo Screening system); host or cells: baculovirus expression system
Put plainly: Luminogenic P450-Glo enzyme inhibition assay, CYP2C9. The protocol: as §1

Data set [1] concerns the target T3, recombinant human CYP2C19 (Homo sapiens, UniProt P33261).
T3 construct: purchased Promega (P450-Glo Screening system); host or cells: baculovirus expression system
As to the kind of experiment: Luminogenic P450-Glo enzyme inhibition assay, CYP2C19. The protocol: as §1

The next data set deals with T4, CYP2D6 (Homo sapiens, UniProt P10635).
T4 construct: purchased Promega (P450-Glo Screening system); host or cells: baculovirus expression system
As to the kind of experiment: Luminogenic P450-Glo enzyme inhibition assay, CYP2D6. The protocol:
as §1

A further data set concerns the target T5, recombinant human CYP3A4 (Homo sapiens, UniProt P08684).
T5 construct: purchased Promega (P450-Glo Screening system); host or cells: baculovirus expression system
Put plainly: Luminogenic P450-Glo enzyme inhibition assay, CYP3A4. The protocol:
as §1

Setting [2] is: classified by IC50 value, read-out: inhibitory potency class on CYP1A2.
Where [3] appears, read: recombinant human enzyme, luminescent assay, 30 min incubation, read-out: IC50 CYP1A2 (converted).
Where [4] appears, read: classified by IC50 value, read-out: inhibitory potency class on CYP2C9.
Setting [5] is: recombinant human enzyme, luminescent assay, 30 min incubation, read-out: IC50 CYP2C9 (converted).
[6] abbreviates: classified by IC50 value, read-out: inhibitory potency class on CYP2C19.
Where [7] appears, read: recombinant human enzyme, luminescent assay, 30 min incubation, read-out: IC50 CYP2C19 (converted).
Where [8] appears, read: classified by IC50 value, read-out: inhibitory potency class on CYP2D6.
[9] abbreviates: recombinant human enzyme, luminescent assay, 45 min incubation, read-out: IC50 CYP2D6 (converted).
Setting [10] is: classified by IC50 value, read-out: inhibitory potency class on CYP3A4.
The mark [11] stands for this setting: recombinant human enzyme, luminescent assay, 30 min incubation, read-out: IC50 CYP3A4 (converted).

The structures appear in SMILES notation. Where two headings read alike, the source gives them in different places.

T2 sequence (P11712 whole entry): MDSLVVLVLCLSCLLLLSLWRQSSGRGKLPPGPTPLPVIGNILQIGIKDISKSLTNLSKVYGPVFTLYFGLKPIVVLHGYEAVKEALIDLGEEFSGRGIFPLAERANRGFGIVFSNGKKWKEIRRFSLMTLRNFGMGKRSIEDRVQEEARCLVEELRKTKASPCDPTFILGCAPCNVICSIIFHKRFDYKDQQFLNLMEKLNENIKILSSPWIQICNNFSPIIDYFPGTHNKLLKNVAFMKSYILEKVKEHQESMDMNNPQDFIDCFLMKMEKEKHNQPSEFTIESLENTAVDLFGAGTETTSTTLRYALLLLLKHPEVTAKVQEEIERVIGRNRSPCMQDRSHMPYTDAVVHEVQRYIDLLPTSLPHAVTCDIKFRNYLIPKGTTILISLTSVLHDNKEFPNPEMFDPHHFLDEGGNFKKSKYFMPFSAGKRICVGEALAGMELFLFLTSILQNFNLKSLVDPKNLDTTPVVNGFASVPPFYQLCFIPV
T4 sequence (P10635 whole entry): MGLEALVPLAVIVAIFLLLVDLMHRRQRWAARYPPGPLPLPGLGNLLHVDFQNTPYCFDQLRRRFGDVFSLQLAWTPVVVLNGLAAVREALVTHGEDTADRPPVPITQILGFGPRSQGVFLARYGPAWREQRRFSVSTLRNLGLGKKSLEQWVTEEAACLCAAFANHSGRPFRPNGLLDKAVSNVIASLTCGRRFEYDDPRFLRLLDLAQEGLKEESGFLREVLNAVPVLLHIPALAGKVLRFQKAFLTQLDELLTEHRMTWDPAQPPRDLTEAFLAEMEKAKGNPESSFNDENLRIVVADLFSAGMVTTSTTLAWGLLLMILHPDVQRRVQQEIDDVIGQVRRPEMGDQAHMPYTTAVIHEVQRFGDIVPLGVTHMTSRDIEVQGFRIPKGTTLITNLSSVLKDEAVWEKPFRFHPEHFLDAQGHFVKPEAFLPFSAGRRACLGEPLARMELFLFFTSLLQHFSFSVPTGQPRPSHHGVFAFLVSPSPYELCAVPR
T5 sequence (P08684 whole entry): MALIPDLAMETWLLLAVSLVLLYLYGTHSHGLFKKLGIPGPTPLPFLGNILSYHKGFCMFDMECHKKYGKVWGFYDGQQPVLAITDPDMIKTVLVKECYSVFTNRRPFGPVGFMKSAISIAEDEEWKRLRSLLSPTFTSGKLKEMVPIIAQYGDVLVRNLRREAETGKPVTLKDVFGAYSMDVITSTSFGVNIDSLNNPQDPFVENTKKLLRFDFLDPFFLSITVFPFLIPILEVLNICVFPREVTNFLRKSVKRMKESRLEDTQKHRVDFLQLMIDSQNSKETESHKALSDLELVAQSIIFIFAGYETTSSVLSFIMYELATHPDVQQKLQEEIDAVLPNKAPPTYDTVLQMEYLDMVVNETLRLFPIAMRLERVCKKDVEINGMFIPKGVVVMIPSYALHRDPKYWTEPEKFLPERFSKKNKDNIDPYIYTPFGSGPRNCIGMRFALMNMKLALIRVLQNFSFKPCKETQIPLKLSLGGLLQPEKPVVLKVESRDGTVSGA
T3 sequence (P33261 whole entry): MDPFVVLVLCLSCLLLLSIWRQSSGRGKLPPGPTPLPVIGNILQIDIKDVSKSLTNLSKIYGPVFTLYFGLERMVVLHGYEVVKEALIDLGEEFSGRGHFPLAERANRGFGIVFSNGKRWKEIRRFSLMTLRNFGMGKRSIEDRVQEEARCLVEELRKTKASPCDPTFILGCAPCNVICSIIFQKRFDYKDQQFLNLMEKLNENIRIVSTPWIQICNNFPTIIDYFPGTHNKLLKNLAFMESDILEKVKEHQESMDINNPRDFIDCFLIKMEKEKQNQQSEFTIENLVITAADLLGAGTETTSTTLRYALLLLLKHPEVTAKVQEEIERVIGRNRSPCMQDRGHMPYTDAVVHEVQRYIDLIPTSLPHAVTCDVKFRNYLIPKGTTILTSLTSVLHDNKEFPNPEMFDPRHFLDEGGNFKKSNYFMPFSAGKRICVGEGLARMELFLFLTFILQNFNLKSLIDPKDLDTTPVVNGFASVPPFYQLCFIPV

In the case of `O=c1c(O)c(-c2ccc(O)c(O)c2)oc2cc(O)ccc12` [Fisetin, 2-(3,4-dihydroxyphenyl)-3,7-dihydroxychromen-4-one], the IC50 was less than 69.9 µM on recombinant human CYP1A2 (setting [2]); 1.61 µM at recombinant human CYP1A2 (setting [3]); less than 69.9 µM on recombinant human CYP2C9 (setting [4]); 18.9 µM at recombinant human CYP2C9 (setting [5]); less than 69.9 µM in data set [1] (setting [6]); less than 0.00349 µM in data set [1] (setting [7]). For the same compound, the IC50 is 69.9 to 349 µM on CYP2D6 (setting [8]), 163 µM on CYP2D6 (setting [9]), more than 349 µM at recombinant human CYP3A4 (setting [10]) and 1080 µM at recombinant human CYP3A4 (setting [11]). Moreover, the IC50 at 45 min on CYP2D6 (human, classified by IC50 value, read-out: inhibitory potency class on CYP2D6) is more than 100 µg/mL.
For the compound `O=C1c2ccc(O)cc2OC(c2ccc(O)c(O)c2)C1O` (stereo not drawn) [Fustin, 2-(3,4-dihydroxyphenyl)-3,7-dihydroxy-2,3-dihydrochromen-4-one], the IC50 at recombinant human CYP1A2 (setting [2]) is more than 347 µM; at recombinant human CYP1A2 (setting [3]) it was 17100 µM; on recombinant human CYP2C9 (setting [4]) it was more than 347 µM; at recombinant human CYP2C9 (setting [5]), 1870 µM; in data set [1] (setting [6]), 69.4 to 347 µM; in data set [1] (setting [7]) it was 223 µM. In addition, the IC50 on CYP2D6 (setting [8]) is more than 347 µM; at CYP2D6 (setting [9]), 18500 µM; on recombinant human CYP3A4 (setting [10]) it was more than 347 µM; at recombinant human CYP3A4 (setting [11]), 1610 µM.
